5 compounds from EP4667483A1, “HUMAN TRANSFERRIN RECEPTOR-BINDING PEPTIDE” (JCR Pharmaceuticals Co., Ltd., priority 2023, dated 2024) can be followed below.

The Kd is the equilibrium constant for the complex coming apart.

Read-outs that look alike come from different tables or passages of the source. Numbered stars: 1 amine (or outer) side, 2 acyl side, 3 side chain; on linkers, the order of the positions; unused ones are H or OH. Bridge positions count the residues as written; N and C are the ends. Square brackets hold non-standard residues; d marks the D form. Peptide text beside a SMILES is read from it. * marks the point of attachment. CH2CO(D-glucamine) = O=C(C*)NC[C@H](O)[C@@H](O)[C@H](O)[C@H](O)CO; NH(1-deoxy-D-glucityl) = OC[C@@H](O)[C@@H](O)[C@H](O)[C@@H](O)CN*; Trp(1-CH2COOH) = N[C@@H](Cc1cn(CC(=O)O)c2ccccc12)C(=O)O; NMePhe(4-COOH) = CN[C@@H](Cc1ccc(C(=O)O)cc1)C(=O)O; X1 = O=C([C@H](Cc1cccc(C(=O)[*:3])c1)N[*:1])[*:2]; Nle(6-morpholino) = N[C@@H](CCCCN1CCOCC1)C(=O)O; Phe(3-COOH) = N[C@@H](Cc1cccc(C(=O)O)c1)C(=O)O; Trp(7-aza) = N[C@@H](Cc1c[nH]c2ncccc12)C(=O)O; NH(CH2CH2O)8Me = COCCOCCOCCOCCOCCOCCOCCOCCN*; NMePhe(3-Cl) = CN[C@@H](Cc1cccc(Cl)c1)C(=O)O; 3Pal(6-NH2) = Nc1ccc(C[C@H](N)C(=O)O)cn1; NMeW = CN[C@@H](Cc1c[nH]c2ccccc12)C(=O)O; NMe3Pal = CN[C@@H](Cc1cccnc1)C(=O)O; NMeY = CN[C@@H](Cc1ccc(O)cc1)C(=O)O; Nva(3-Et) = CCC(CC)[C@H](N)C(=O)O; NMeF = CN[C@@H](Cc1ccccc1)C(=O)O; 4Pal = N[C@@H](Cc1ccncc1)C(=O)O; PEG4 = NCCOCCOCCOCCOCCC(=O)O; Carboxymethyl = O=C(O)C*

The assay addresses human transferrin receptor (hTfR) (Homo sapiens, UniProt P02786). As to the kind of experiment: SPR measurement under pH 7.4 conditions (Biacore T200, CM3 chip, hTfR captured by His Tag antibody). It is filed as binding. Here is the method: Molecular interactions between the synthesized peptides and the transferrin receptor (hTfR) were evaluated by surface plasmon resonance (SPR) using the following method. The specific assay procedure is described below.
An CM3 sensor chip (Cytiva) was inserted into BiacoreT200 (Cytiva), then a priming operation was performed three times by using a running buffer: HBS-P+, pH7.4 (Cytiva), and an equilibrium state was created at a flow rate of […]. Ligand immobilization was performed at a flow rate of 10 µL/min. After mixing 50 µL each of 60 mM EDC solution (Cytiva) and 650 mM NHS solution (Cytiva), the mixture was reacted at a flow rate of 10 µL/min for 420 seconds. 150 µL of […] THE His Tag Antibody, mAb, Mouse (GenScript) was prepared by diluting with 10 mM acetic acid solution (pH 5.0), and reacted at a flow rate of 10 µL/ min for 420 seconds. Then, THE His Tag Antibody, mAb, Mouse (GenScript) was immobilized as a capture molecule on the CM3 sensor chip. After immobilization, capping was performed by reacting with 1.0 M ethanolamine solution (Cytiva) at a flow rate of 10 µL/min for 420 seconds. 300 nM hTfR was captured at a flow rate of 10 µL/min, a peptide solution prepared at 10 mM in DMSO was diluted with running buffer to achieve a final concentration of 10 µM, and peptide solutions at 250 nM, 125 nM, 62.5 nM, 25 nM, and 12.5 nM were prepared. . The peptide samples were reacted at a flow late of 30 µL/min for 120 seconds, followed by dissociation for 600 seconds. The kinetics of the peptide against hTfR was obtained by SPR measurement for the above samples.
The kinetic evaluation model was single-cycle kinetics, and curve fitting was performed using Biacore T200 Evaluation Software Version 3.0 (Cytiva). The binding of the peptide to hTfR was evaluated by performing curve fitting on the obtained sensorgram by the least squares method and obtaining the kon value, the koff value, and the KD value.
Background: In SPR one partner is held on a chip, and binding of the other changes the refractive index at the surface.

Setting [1] is: SPR, pH 7.4, peptide with the linker named in the table, read-out: hTfR SPR pH7.4 KD.

Sequence of human transferrin receptor (hTfR) (P02786 whole entry): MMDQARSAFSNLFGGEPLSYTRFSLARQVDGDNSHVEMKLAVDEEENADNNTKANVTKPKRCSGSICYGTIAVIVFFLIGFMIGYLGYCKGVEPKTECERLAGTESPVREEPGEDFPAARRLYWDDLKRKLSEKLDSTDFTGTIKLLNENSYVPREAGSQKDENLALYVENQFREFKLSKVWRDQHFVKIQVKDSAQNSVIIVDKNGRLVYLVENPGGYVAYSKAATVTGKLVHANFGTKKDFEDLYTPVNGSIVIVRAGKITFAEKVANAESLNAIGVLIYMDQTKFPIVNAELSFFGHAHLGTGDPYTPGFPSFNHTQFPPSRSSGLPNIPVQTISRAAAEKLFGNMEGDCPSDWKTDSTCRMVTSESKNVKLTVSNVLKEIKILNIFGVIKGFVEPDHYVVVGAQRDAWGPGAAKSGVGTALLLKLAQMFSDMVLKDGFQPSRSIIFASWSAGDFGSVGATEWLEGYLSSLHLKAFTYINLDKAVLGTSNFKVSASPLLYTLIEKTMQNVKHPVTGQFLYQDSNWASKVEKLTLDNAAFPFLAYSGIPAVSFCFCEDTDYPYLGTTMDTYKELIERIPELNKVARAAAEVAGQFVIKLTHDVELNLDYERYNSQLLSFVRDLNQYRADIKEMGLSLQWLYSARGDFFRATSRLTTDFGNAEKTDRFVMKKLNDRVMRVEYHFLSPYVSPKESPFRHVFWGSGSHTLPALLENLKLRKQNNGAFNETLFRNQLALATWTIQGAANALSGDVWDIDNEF

For `CC[C@H](C)[C@@H]1NC(=O)[C@H](Cc2ccc(OCC(=O)NC[C@H](O)[C@@H](O)[C@H](O)[C@H](O)CO)cc2)NC(=O)[C@H](Cc2ccc(N)nc2)NC(=O)[C@H](CC(N)=O)NC(=O)[C@H](Cc2c[nH]c3ncccc23)NC(=O)[C@H](C(C)C)NC(=O)[C@H](Cc2cccc(Cl)c2)N(C)C(=O)[C@H](C(C)C)NC(=O)[C@H](C)NC(=O)CSC[C@@H](C(=O)NCCOCCOCCOCCOCCC(N)=O)NC(=O)[C@H](Cc2ccc(O)cc2)N(C)C(=O)[C@H](Cc2ccncc2)NC(=O)[C@H](CCCCN2CCOCC2)NC(=O)[C@H](CCC(=O)NC[C@H](O)[C@@H](O)[C@H](O)[C@H](O)CO)NC(=O)[C@H]([C@@H](C)CC)NC1=O` [compound 13] ({CH2CO}-AV[NMePhe(3-Cl)]V[Trp(7-aza)]N[3Pal(6-NH2)]Y(CH2CO(D-glucamine))IIE(NH(1-deoxy-D-glucityl))[Nle(6-morpholino)][4Pal][NMeY]C[PEG4]-NH2; thioether N-15), the Kd (pH 7.4, single-cycle kinetics, read-out: hTfR SPR pH7.4 KD) is 11.4 nM.
For `CCC(CC)[C@@H]1NC(=O)[C@H](Cc2ccc(OCC(=O)O)cc2)NC(=O)[C@H](Cc2ccc(N)nc2)NC(=O)[C@H](CC(N)=O)NC(=O)[C@H](Cc2c[nH]c3ccccc23)NC(=O)[C@H](C(C)C)NC(=O)[C@H](Cc2cccc(Cl)c2)N(C)C(=O)[C@H](C(C)C)NC(=O)[C@H](C)NC(=O)CSC[C@@H](C(=O)NCCOCCOCCOCCOCCC(N)=O)NC(=O)[C@H](Cc2ccc(C(=O)O)cc2)N(C)C(=O)[C@H](Cc2cccc(C(=O)O)c2)NC(=O)[C@H](CCCNC(=N)N)NC(=O)[C@H](CCC(=O)NCCOCCOCCOCCOCCOCCOCCOCCOC)NC(=O)[C@H]([C@@H](C)CC)NC1=O` [compound 85] ({CH2CO}-AV[NMePhe(3-Cl)]VWN[3Pal(6-NH2)]Y(Carboxymethyl)[Nva(3-Et)]IE(NH(CH2CH2O)8Me)R[Phe(3-COOH)][NMePhe(4-COOH)]C[PEG4]-NH2; thioether N-15), the Kd (SPR, pH 7.4, read-out: hTfR SPR pH7.4 KD) is 234 nM.
Regarding `CCC(CC)[C@@H]1NC(=O)[C@H](Cc2ccc(OCC(=O)O)cc2)NC(=O)[C@H](Cc2ccc(O)cc2)NC(=O)[C@H](CC(N)=O)NC(=O)[C@H](Cc2cn(CC(=O)O)c3ccccc23)NC(=O)[C@H](C(C)C)NC(=O)[C@H](Cc2cccc(Cl)c2)N(C)C(=O)[C@H](C(C)C)NC(=O)[C@H](C)NC(=O)CSC[C@@H](C(=O)NCCOCCOCCOCCOCCC(N)=O)NC(=O)[C@H](Cc2cccnc2)N(C)C(=O)[C@H](Cc2cccc(C(=O)O)c2)NC(=O)[C@H](CCCNC(=N)N)NC(=O)[C@H](CCC(N)=O)NC(=O)[C@H]([C@@H](C)CC)NC1=O` [compound 97] ({CH2CO}-AV[NMePhe(3-Cl)]V[Trp(1-CH2COOH)]NYY(Carboxymethyl)[Nva(3-Et)]IQR[Phe(3-COOH)][NMe3Pal]C[PEG4]-NH2; thioether N-15), the Kd under setting [1] came to 22.6 nM.
In the case of `CC[C@H](C)[C@@H]1NC(=O)[C@H](Cc2ccc(O)cc2)NC(=O)[C@H](Cc2ccc(O)cc2)NC(=O)[C@H](CC(N)=O)NC(=O)[C@H](Cc2c[nH]c3ccccc23)N(C)C(=O)[C@H](C(C)C)NC(=O)[C@H](Cc2ccccc2)N(C)C(=O)[C@H](C(C)C)NC(=O)[C@H](C)NC(=O)CSC[C@@H](C(=O)NCCOCCOCCOCCOCCC(N)=O)NC(=O)[C@H](Cc2ccc(C(=O)O)cc2)N(C)C(=O)[C@H](Cc2cccc(C(=O)NCCOCCOCCOCCOCCC(=O)O)c2)NC(=O)[C@H](CCCNC(=N)N)NC(=O)[C@H](CCCCN)NC(=O)[C@H]([C@@H](C)CC)NC1=O` [compound 121] ({CH2CO}-AV[NMeF]V[NMeW]NYYIIKR[X1](PEG4)[NMePhe(4-COOH)]C[PEG4]-NH2; thioether N-15), the Kd under setting [1] is 1.84 nM.
For `CC[C@H](C)[C@@H]1NC(=O)[C@H](Cc2ccc(OCC(=O)N3CCN(CC(=O)O)CC3)cc2)NC(=O)[C@H](Cc2ccc(N)nc2)NC(=O)[C@H](CC(N)=O)NC(=O)[C@H](Cc2c[nH]c3ncccc23)NC(=O)[C@H](C(C)C)NC(=O)[C@H](Cc2cccc(Cl)c2)N(C)C(=O)[C@H](C(C)C)NC(=O)[C@H](C)NC(=O)CSC[C@@H](C(=O)NCCOCCOCCOCCOCCC(N)=O)NC(=O)[C@H](Cc2ccc(O)cc2)N(C)C(=O)[C@H](Cc2ccncc2)NC(=O)[C@H](CCCNC(=N)N)NC(=O)[C@H](CCC(=O)NCCOCCOCCOCCOCCOCCOCCOCCOC)NC(=O)[C@H]([C@@H](C)CC)NC1=O` [compound 153], the Kd (SPR, pH 7.4, Table 2-1-2, read-out: hTfR SPR pH7.4 KD(n M)) is 44.3 nM.
